Laboratory results published in patent US9730447B2, “Fungicidal amides” (E I DU PONT DE NEMOURS AND COMPANY, priority 2013, dated 2017).
Marks after values point to notes of the source that are not given here.

Key:
Format in all cases: in vivo
[1] = system: Puccinia recondite f. sp. tritici; assay: Test D: preventive spray on wheat seedlings, Puccinia recondite f. sp. tritici (wheat leaf rust), visual disease rating
Summary of the method: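 Wheat seedlings sprayed to run-off with 40 ppm (160 g ai/ha) or 10 ppm (40 g ai/ha) suspension in acetone/water with 250 ppm surfactant, inoculated next day with leaf rust spores. After 24 h saturated at 20 °C then 6 days at 20 °C, visual rating of disease control (0–100) relative to controls.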

Septoria tritici = assay: Test C: preventive spray on wheat seedlings, Septoria tritici (wheat leaf blotch), visual disease rating
Summary of the method: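 Wheat seedlings sprayed to run-off at 40 ppm or 10 ppm (160 or 40 g ai/ha) in acetone/water with surfactant, inoculated with Septoria tritici spores next day. Held 48 h saturated at 24 °C, then 21 days at 20 °C. Visual rating scored as % disease control relative to controls.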

[2] = system: Stagonospora nodorum (also known as Septoria nodorum); assay: Test B: preventive spray on wheat seedlings, Stagonospora nodorum (wheat glume blotch), visual disease rating
Summary of the method: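 Compounds in acetone/water (50/50) with 250 ppm Trem 014 surfactant were sprayed to run-off at 40 ppm (160 g ai/ha) or 10 ppm (40 g ai/ha). Seedlings were inoculated with S. nodorum spores the next day, then held 48 h saturated at 20 °C and 6 days in a growth chamber at 20 °C. Visual rating as % disease control vs untreated.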

Botrytis cinerea = assay: Test A: preventive spray on tomato seedlings, Botrytis cinerea (gray mold), visual disease rating
Summary of the method: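 Tomato seedlings sprayed to run-off with 40 ppm or 10 ppm suspensions (160 or 40 g ai/ha) in acetone/water with 250 ppm surfactant. Inoculated with B. cinerea spores next day, held saturated at 20 °C for 48 h, then 27 °C for 2 days. Visual rating, 0–100% disease control relative to controls.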

[3] = system: Erysiphe graminis f. sp. tritici; assay: Test E: preventive spray on wheat seedlings, Erysiphe graminis f. sp. tritici (wheat powdery mildew), visual disease rating
Summary of the method: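 Wheat seedlings were sprayed to run-off with 40 or 10 ppm suspension (160 or 40 g ai/ha) and dusted with spores the next day. They were then kept 8 days at 20 °C. Disease was rated visually as % control relative to untreated controls (0–100).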

[4] = 100 = 100% disease control, 0 = no control, unmarked values
[5] = 100 = 100% disease control, 0 = no control relative to controls, unmarked values
[6] = values marked with asterisk (*), meaning not given

| Compound | Test D disease control rating [1, 4] [%] | Test C disease control rating (Septoria tritici; [4]) [%] | Test B disease control rating [2, 4] [%] | Test A disease control rating (Botrytis cinerea; [5]) [%] | Test E disease control rating [3, 4] [%] | Test D disease control rating [1, 6] | Test C disease control rating (Septoria tritici; [6]) | Test B disease control rating [2, 6] | Test A disease control rating (Botrytis cinerea; [6]) | Test E disease control rating [3, 6] |
| --- | --- | --- | --- | --- | --- | --- | --- | --- | --- | --- |
| O=C(Nc1ccccc1-c1cnc(-n2ccc(C(F)(F)F)n2)nc1)c1nccnc1Cl [compound 55] | 91 | 100 | 0 | 0 | 0 |  |  |  |  |  |
| O=C(Nc1ccccc1-c1ccc(-n2ccc(C(F)(F)F)n2)nn1)c1ccccc1C(F)(F)F [compound 57] | 100 | 32 | 0 | 0 | 0 |  |  |  |  |  |
| O=C(Nc1ccccc1-c1cnc(-n2cc(Cl)cn2)c(Cl)c1)c1ccccc1C(F)(F)F [compound 60] | 100 | 100 | 0 | 34 | 99 |  |  |  |  |  |
| Cn1cc(C(=O)Nc2ccccc2-c2cnc(-n3cc(Cl)cn3)c(Cl)c2)c(C(F)F)n1 [compound 62] | 100 | 100 | 0 | 84 | 98 |  |  |  |  |  |
| Cc1cc(-c2ccccc2NC(=O)c2ccccc2C(F)(F)F)cnc1-n1cc(Cl)cn1 [compound 63] | 99 | 92 | 0 | 27 | 72 |  |  |  |  |  |
| Cc1cc(-c2ccccc2NC(=O)c2ncccc2C(F)(F)F)cnc1-n1cc(Cl)cn1 [compound 64] | 100 | 100 | 60 | 98 | 96 |  |  |  |  |  |
| Cc1cc(-c2ccccc2NC(=O)c2cn(C)nc2C(F)F)cnc1-n1cc(Cl)cn1 [compound 65] | 100 | 100 | 97 | 99 | 94 |  |  |  |  |  |
| O=C(Nc1ccccc1-c1ccc(-n2cc(Cl)cn2)nc1)c1ccccc1C(F)(F)F [compound 66] | 89 | 18 | 0 | 32 | 0 |  |  |  |  |  |
| O=C(Nc1ccccc1-c1ccc(-n2cc(Cl)cn2)nc1)c1ncccc1Cl [compound 67] | 90 | 62 | 0 | 7 | 0 |  |  |  |  |  |
| O=C(Nc1ccccc1-c1cnc(-n2ccc(Cl)n2)c(F)c1)c1ncccc1C(F)(F)F [compound 69] | 100 | 100 | 100 | 99 | 100 |  |  |  |  |  |
| O=C(Nc1ccccc1-c1cnc(-n2cc(Cl)cn2)c(F)c1)c1ncccc1C(F)(F)F [compound 70] | 100 | 100 | 99 | 99 | 100 |  |  |  |  |  |
| O=C(Nc1ccccc1-c1cnc(-n2ccc(Br)n2)c(F)c1)c1ncccc1C(F)(F)F [compound 71] | 100 | 100 | 100 | 94 | 100 |  |  |  |  |  |
| O=C(Nc1ccccc1-c1cnc(-n2ccc(-c3ccccc3)n2)c(F)c1)c1ncccc1C(F)(F)F [compound 72] | 97 | 100 | 0 | 92 | 91 |  |  |  |  |  |
| Cn1cc(C(=O)Nc2ccccc2-c2cnc(-n3ccc(Cl)n3)c(F)c2)c(C(F)F)n1 [compound 73] | 100 | 100 | 100 | 96 | 100 |  |  |  |  |  |
| Cn1cc(C(=O)Nc2ccccc2-c2cnc(-n3cc(Cl)cn3)c(F)c2)c(C(F)F)n1 [compound 74] | 100 | 100 | 0 | 96 | 100 |  |  |  |  |  |
| Cn1cc(C(=O)Nc2ccccc2-c2cnc(-n3ccc(Br)n3)c(F)c2)c(C(F)F)n1 [compound 75] | 100 | 100 | 98 | 99 | 100 |  |  |  |  |  |
| Cn1cc(C(=O)Nc2ccccc2-c2cnc(-n3ccc(-c4ccccc4)n3)c(F)c2)c(C(F)F)n1 [compound 76] | 100 | 100 | 0 | 99 | 99 |  |  |  |  |  |
| O=C(Nc1ccccc1-c1cnc(-n2ccc(Cl)n2)c(F)c1)c1ccccc1C(F)(F)F [compound 77] | 100 | 100 | 0 | 74 | 98 |  |  |  |  |  |
| O=C(Nc1ccccc1-c1cnc(-n2cc(Cl)cn2)c(F)c1)c1ccccc1C(F)(F)F [compound 78] | 100 | 100 | 0 | 28 | 97 |  |  |  |  |  |
| O=C(Nc1ccccc1-c1cnc(-n2ccc(Br)n2)c(F)c1)c1ccccc1C(F)(F)F [compound 79] | 100 | 100 | 0 | 25 | 99 |  |  |  |  |  |
| O=C(Nc1ccccc1-c1cnc(-n2ccc(-c3ccccc3)n2)c(F)c1)c1ccccc1C(F)(F)F [compound 80] | 88 | 100 | 0 | 0 | 0 |  |  |  |  |  |
| O=C(Nc1ccccc1-c1ccc(-n2nc(C(F)(F)F)cc2O)nc1)c1ncccc1C(F)(F)F [compound 82] |  |  |  |  |  | 97* % | 48* % | 97* % | 31* % | 0* % |
| N#Cc1cnn(-c2ncc(-c3ccccc3NC(=O)c3ncccc3C(F)(F)F)cc2F)c1 [compound 85] | 99 | 45 | 0 | 70 | 0 |  |  |  |  |  |
| N#Cc1ccn(-c2ncc(-c3ccccc3NC(=O)c3ncccc3C(F)(F)F)cc2F)n1 [compound 86] | 100 | 98 | 0 | 89 | 79 |  |  |  |  |  |
